Data reported in ChEMBL document CHEMBL3392924, “MMV box selection for compounds with potential use in combination with artemisinin using S. cerevisiae”.

Tested on: Saccharomyces cerevisiae
Assay: Assay utilized the disc diffusion method with the observance of a clear zone indicating inhibition of growth. Synthetic complete medium containing 3% glycerol as a carbon source (SCG) was used in each assay. 10 uL of each compound was added to a paper disc which was placed on SCG and SCG+Artemisinin (0.2 uM) plates seeded with 10e6 yeast cells (WC081 strain: Mat a, leu2 delta 0, lys2 delta 0, ura3 delta 0, his3 delta 1, pdr1 delta::HIS3, pdr3 delta::kanMX4, derived from BY4742, regulators of Multi-drug resistance transporters have been deleted to enhance toxicity of compounds). Plates were incubated at 30 degrees C for 5 days and clear zones were measured. Compounds that produced a larger clear zone in the presence of artemisinin was considered to have an additive interaction with artemisinin. Results are reported as diameter of clear zone on SCG+artemisinin plates - diameter of clear zone on SCG plates without artemisinin.
Assay type: organism-based
Details: in vivo, 120 h

| Compound | Diameter of inhibition zone |
| --- | --- |
| CSC1=NC(=Nc2c(C)cccc2C)C2(CCC(C(C)(C)C)CC2)N1c1ccc(Cl)cc1 (centres undefined) | 0 mm |
| O=C(NCC(c1ccsc1)N1CCCCCC1)c1ccc(C(F)(F)F)cc1 (centres undefined) | 0 mm |
| Cc1cc(Nc2ccc3ccccc3c2)n2ncnc2n1 | 7 mm |
| Cc1cc(C=C2SC(=Nc3ccccc3)N(C3CCCC3)C2=O)c(C)n1-c1ccc(Cl)cc1 | 0 mm |
| CCOc1ccc(-c2nonc2NC(=O)c2cccc(C)c2)cc1OCC | 0 mm |
| CCCc1c(CC)c(=N)c2ccccc2n1C | 0 mm |
| CCc1c(C)c(=N)c2ccccc2n1C.I | 0 mm |
| Cc1cc(C)c2c(c1)OCN(Cc1ccccc1Cl)C2 | 0 mm |
| O=C(O)C1Cc2c([nH]c3ccccc23)C(c2ccc(Cl)cc2Cl)N1 (centres undefined) | 0 mm |
| OC(CNC1CCCCC1)Cn1c2ccccc2c2ccccc21 (centres undefined) | 0 mm |
| COc1ccc(NC(=O)C2c3ccccc3C(=O)N(CC(C)C)C2c2cccs2)cc1Cl (centres undefined) | 0 mm |
| Cc1cc(NCCN2CCCCC2)c2ccc3ccccc3c2n1 | 0 mm |
| Cc1ccc(N2C3c4ccccc4N(S(=O)(=O)c4ccc(C)cc4)C2c2ccccc2N3S(=O)(=O)c2ccc(C)cc2)cc1 | 0 mm |
| CCN(CC)CCNc1ncnc2c1[nH]c1ccc(Cl)cc12 | 0 mm |
| CCC(c1ccccc1)c1nn2c(-c3cccs3)nnc2s1 (centres undefined) | 0 mm |
| COc1ccc2c(c1)OC(O)(C(F)(F)C(F)(F)F)CC2=O (centres undefined) | 0 mm |
| COc1ccc(C2=C(c3ccc(OC)cc3)C3(c4ccccc4)C(=O)C2(c2ccccc2)C2C(=O)N(c4ccc(C)cc4)C(=O)C23)cc1 (centres undefined) | 0 mm |
| Cc1cc(Nc2ccc(Cl)cc2)n2nc(C(F)(F)F)nc2n1 | 0 mm |
| Cl.Oc1ccccc1CNCC12CC3CC(CC(C3)C1)C2 | 0 mm |
| CCC1(C)CC(CCNCc2ccccc2O)(c2ccc(C)cc2)CCO1 (centres undefined) | 0 mm |
| CCOC(=O)c1cnc2ccc(CC)cc2c1O | 0 mm |
| COc1ccccc1CNC(=O)CCn1c(=O)[nH]c2ccsc2c1=O | 0 mm |
| CN(C)CCCNc1c2ccccc2nc2ccccc12 | 0 mm |
| CCCCCCOC(=O)C1=C(C)NC(=O)NC1c1ccccc1F (centres undefined) | 0 mm |
| CC1CCN(Cc2ccc(NC(=O)c3cc4ccc5cccnc5c4[nH]3)cc2)CC1 | 0 mm |
| CCCN(CCC)CC(O)COc1ccccc1C(=O)Nc1ccccc1 (centres undefined) | 0 mm |
| COc1ccccc1NC1=C(N2CCCCC2)C(=O)c2ccccc2C1=O | 0 mm |

| Compound | Diameter of inhibition zone |
| --- | --- |
| CCOC(=O)c1cn(CC)c2cc(N3CCCCC3)c(F)cc2c1=O | 0 mm |
| CNCCCNc1ccnc2cc(Cl)ccc12 | 0 mm |
| COc1cc(OC)c(N(C)C(=O)c2cc3c(s2)-c2ccccc2S(=O)(=O)C3)cc1Cl | 0 mm |
| Cc1cc(NC(=O)C2c3ccccc3C(=O)N(CC(C)C)C2c2cccs2)no1 (centres undefined) | 0 mm |
| COc1ccc2c(=O)cc(C(Cl)(Cl)Cl)oc2c1 | 0 mm |
| CN(C)c1ccc(C(O)(c2ccc(N(C)C)cc2)c2ccc(N(C)C)cc2)cc1 [METHYLROSANILINE] | 0 mm |
| c1ccc(Cn2c(N=Nc3c(Nc4ccccc4)ccc4ccccc34)nc3ccccc32)cc1 | 1 mm |
| CCN(CC)CCNc1ccnc2cc(Cl)ccc12 | 0 mm |
| CCCc1cc(O)c2c3c(c(=O)oc2c1)CN(C)CC3 | 0 mm |
| COc1ccc(Br)cc1C1Nc2ccc3ccccc3c2C2=C1C(=O)CC(c1ccccc1)C2 (centres undefined) | 0 mm |
| CCCCCC(=O)N1c2ccccc2N=C2CC(c3ccc(OC)c(OC)c3)CC(O)=C2C1c1ccc(C(F)(F)F)cc1 (centres undefined) | 0 mm |
| CCOC(=O)c1cnc2c(C)cc(C)cc2c1Nc1ccc(OC)c(OC)c1 | 0 mm |
| CCOC(=O)c1c(C)n(-c2ccc(Cl)cc2)c2ccc(OC(=O)C=Cc3ccccc3)cc12 | 0 mm |
| COc1ccc(-c2nc3cc(Cc4ccc5[nH]c(-c6ccc(OC)cc6)nc5c4)ccc3[nH]2)cc1 | 0 mm |
| Cc1ccc(-c2cc3nc4c(c(O)n3n2)CCCC4)cc1 | 0 mm |
| C[n+]1c2ccccc2nc2ccc(NCCO)cc21 | 0 mm |
| CCN1CCCC1CNc1[nH]cnc2c3cc(Cl)ccc3nc1-2 (centres undefined) | 0 mm |
| CN(C)c1ccc(C=Cc2nc(=O)c3ccccc3o2)cc1 | 0 mm |
| Fc1ccc2[nH]c3c(NCCCN4CCOCC4)ncnc3c2c1 | 0 mm |
| COc1ccc(-n2ccnc2SCC(=O)Nc2cc(C)ccc2C)c(OC)c1 | 0 mm |
| Cc1cccc(Nc2nc(N)c3ccccc3n2)c1.Cl | 0 mm |
| COc1ccc(-c2nc(NC(=O)CS(=O)(=O)c3ccc(F)cc3)sc2C)cc1 | 0 mm |
| CCOc1cc2c(cc1OCC)C(c1cc(OC)c(O)cc1Cl)NCC2 (centres undefined) | 0 mm |
| COc1ccccc1CNC(=O)CCn1c(=O)[nH]c2ccccc2c1=O | 0 mm |
| Cc1cc(Nc2ccc(C)c(Cl)c2)n2nc(C(F)(F)F)nc2n1 | 0 mm |
| O=[N+]([O-])c1ccc(C=NNc2nc3ccccc3[nH]2)cc1 | 0 mm |
| COc1ccc(C(=O)Nc2nonc2-c2ccc(OC)c(OC)c2)cc1Cl | 0 mm |

| Compound | Diameter of inhibition zone |
| --- | --- |
| Cc1ccc(N2C(=O)C3C(C2=O)C2(c4ccccc4)C(=O)C3(c3ccccc3)C(c3ccccc3)=C2c2ccccc2)cc1 (centres undefined) | 0 mm |
| CCOC(=O)C1=C(c2ccccc2)N=c2sc(=Cc3cc(C)n(-c4ccc(F)cc4)c3C)c(=O)n2C1c1cccc(OC)c1OC (centres undefined) | 0 mm |
| Cc1ccc(-c2cc3c(nn2)-c2ccccc2C3=O)cc1 | 0 mm |
| CC(C)(C)c1ccc(O)c(CNC2CCCCC2)c1 | 0 mm |
| CC1CN(C(=O)c2sc3ccccc3c2Cl)CC(C)O1 (centres undefined) | 0 mm |
| COc1cccc(C=Cc2nc(=O)c3ccccc3o2)c1OC | 0 mm |
| Cc1cc(C)cc(Nc2cc(C)nc3nc(C(F)(F)F)nn23)c1 | 0 mm |
| CN1CCN(c2ccc(Nc3c4ccccc4nc4ccccc34)cc2)CC1 | 0 mm |
| Cc1ccc(Nc2nc(NCCO)c3ccccc3n2)cc1C | 0 mm |
| c1ccc2cc3c(Nc4ccc(N5CCOCC5)cc4)ccnc3cc2c1 | 0 mm |
| COc1ccc(C(C)=O)cc1N1C(=O)C2C(C1=O)C1(c3ccccc3)C(=O)C2(c2ccccc2)C(c2ccc(C)cc2)=C1c1ccc(C)cc1 (centres undefined) | 0 mm |
| COc1ccc(-c2c(C)nn3c(N)c(C#N)cnc23)cc1OC | 0 mm |
| COc1ccc(-c2cc3c(SCC(=O)Nc4cc(C(F)(F)F)ccc4Cl)nccn3n2)cc1 | 0 mm |
| CSc1ccccc1C(=O)Nc1nc(-c2ccccn2)cs1 | 3 mm |
| CCOC(=O)c1c(NC(=O)c2ccccc2)sc2c(O)c(CN(CC)CC)ccc12 | 0 mm |
| CCOC(=O)c1ccc2[nH]c(-c3ccccc3)cc(=O)c2c1 | 0 mm |
| C=CC12CCN(CC1)C(C(O)c1ccnc3ccc(OC)cc13)C2.Cl (centres undefined) | 0 mm |
| COc1ccc(C=C2SC(=N)N(c3ccccc3OC)C2=O)cc1 | 0 mm |
| CCN1CCN(Cc2ccc(NC(=O)c3cc4ccc5cccnc5c4[nH]3)cc2)CC1 | 0 mm |
| Cc1ccc(-c2cc3c(SCC(=O)Nc4cc(C(F)(F)F)ccc4Cl)nccn3n2)cc1 | 0 mm |
| CCOC(=O)c1cn(CC)c2cc(N(C)CCc3ccc(OC)c(OC)c3)c(F)cc2c1=O | 0 mm |
| CCc1ccc(Nc2cc(C)c3ccc(O)cc3n2)cc1.Cl | 0 mm |
| COc1ccc(NC(=O)C2c3ccccc3C(=O)N(CC(C)C)C2c2cccs2)cc1 (centres undefined) | 0 mm |
| COc1cccc(NC(=O)[C@H](C(C)C)n2c(=O)[nH]c3ccccc3c2=O)c1 | 0 mm |
| CCn1c(CN2CCN(Cc3ccccc3)CC2)nc2cc(NC(=O)c3cccs3)ccc21 | 0 mm |
